Experimental data: patent US20250235456A1, “METHODS OF USE FOR AZA-QUINAZOLINE COMPOUNDS” (Iambic Therapeutics, Inc., priority 2024, published 2025)

Tests used:
Format in all cases: biochemical
[1] = target: CDK1/Cyclin B1 (Homo sapiens (Human), UniProt P06493); assay: CDK1/Cyclin B1 ADP-Glo Kinase Assay
Protocol: CDK1/Cyclin B1 ADP-Glo Kinase Assay
(§1) The purpose of CDK1/Cyclin Bi assay is to evaluate the inhibition (% inhibition and IC50 values) of small molecule inhibitors by using a Luminescent based ADP-Glo assay. CDK1/Cyclin B1 catalyzes the production of ADP from ATP. ADP-Glo assay monitors ADP producing biochemical reactions. ADP-Glo is performed in 2 steps upon completion of kinase reaction: a combined termination of kinase reaction and depletion of remaining ATP in the first step, and conversion of generated ADP to ATP and the newly produced ATP to light output using luciferase/luciferin reaction in the second step. The luminescent signal generated is proportional to the ADP concentration produced and is correlated with the kinase activity. CDK1/Cyclin B1 was purchased from Carna (Cat 04-102). […] The assay was initiated with the addition of ATP-containing substrate solution, following a 30-minute pre-incubation of enzyme and inhibitor at room temperature in the reaction mixture. The reaction was stopped after 90 minutes at room temperature by the addition of 10 μL of ADP-GLO Reagent. After a 90 minute incubation, 20 μL of Kinase Detection Reagent was added. Samples were incubated for 40 minutes, after which plate well luminescence was measured on a Envision microplate reader. The IC50 determinations were made from a plot of the fractional velocity as a function of inhibitor concentration fit to the 4 parameters IC50 equation.

[2] = target: CDK4/Cyclin D1 (Homo sapiens (Human), UniProt P11802); assay: CDK4/Cyclin D1 CHEF Assay; details: AQT; read-out: CDK4/CyclinD1 AQT IC50
Chain of CDK4/Cyclin D1 (P11802 whole entry, species assumed): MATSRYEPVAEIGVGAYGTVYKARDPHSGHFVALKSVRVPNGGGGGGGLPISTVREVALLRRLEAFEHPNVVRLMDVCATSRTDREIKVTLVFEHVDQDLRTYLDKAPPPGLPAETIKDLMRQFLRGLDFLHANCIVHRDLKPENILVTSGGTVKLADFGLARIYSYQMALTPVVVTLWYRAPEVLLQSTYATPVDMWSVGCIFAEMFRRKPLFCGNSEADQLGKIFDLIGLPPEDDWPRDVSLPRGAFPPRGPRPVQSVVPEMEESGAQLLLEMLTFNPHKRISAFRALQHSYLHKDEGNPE
Chain of CDK4/Cyclin D1 (P24385 whole entry partner, species assumed): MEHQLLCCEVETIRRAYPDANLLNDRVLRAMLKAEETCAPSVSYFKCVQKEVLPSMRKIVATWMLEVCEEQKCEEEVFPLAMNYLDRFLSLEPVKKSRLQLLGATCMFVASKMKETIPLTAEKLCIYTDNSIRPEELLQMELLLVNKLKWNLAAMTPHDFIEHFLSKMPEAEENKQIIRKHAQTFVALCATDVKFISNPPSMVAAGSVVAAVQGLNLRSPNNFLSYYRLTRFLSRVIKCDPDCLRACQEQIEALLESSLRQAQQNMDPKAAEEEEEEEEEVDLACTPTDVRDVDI
Source text: CDK4/Cyclin D1 CHEF Assay
The purpose of CDK4/Cyclin Dl assay is to evaluate the inhibition (% inhibition and IC50 values) of small molecule inhibitors by using a Chelation-Enhance Fluorescence (CHEF) assay. In a CHEF assay, phosphorylation of a peptide substrate results in proportional increase in fluorescence. CHEF kinase assay use peptide substrates containing a synthetic alpha-amino acid with a side chain bearing an 8-hydroxyquinoline derivative (sulfonamido-oxide, Sox). Upon phosphorylation of a nearby serine, threonine or tyrosine and in the presence of Mg(II), the spectral properties of the Sox residue are altered, emitting 485 nm wavelength light when excited with a 360 nm wavelength light source. CDK4/Cyclin D1 catalyzes the phosphoryl transfer to the SOX-labeled substrate peptide AQT0258 from Assayquant Technologies. […] The reaction was initiated with the addition of substrate solution, following a 30-minute pre-incubation of enzyme and inhibitor at 22° C. in the reaction mix. Reactions were allowed to proceed for 3 hrs at 22° C., followed by fluorescence read of the reaction. The IC50 determinations were made from a plot of the fractional velocity as a function of inhibitor concentration fit to the 4 parameters IC50 equation.

[3] = target: CDK6/Cyclin D3 (Homo sapiens (Human), UniProt Q00534); assay: CDK6/Cyclin D3 ADP-Glo Kinase Assay; details: read-out: CDK6/CyclinD3 IC50
Chain of CDK6/Cyclin D3 (Q00534 whole entry): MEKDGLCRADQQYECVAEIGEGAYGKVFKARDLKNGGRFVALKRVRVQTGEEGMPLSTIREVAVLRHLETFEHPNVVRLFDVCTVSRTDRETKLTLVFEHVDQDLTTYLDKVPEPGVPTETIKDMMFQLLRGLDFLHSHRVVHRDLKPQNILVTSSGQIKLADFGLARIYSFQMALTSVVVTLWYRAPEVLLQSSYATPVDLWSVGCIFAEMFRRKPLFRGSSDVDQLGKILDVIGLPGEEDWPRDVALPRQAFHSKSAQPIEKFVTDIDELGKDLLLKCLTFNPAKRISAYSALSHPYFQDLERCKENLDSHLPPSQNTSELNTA
Chain of CDK6/Cyclin D3 (P30281 whole entry partner): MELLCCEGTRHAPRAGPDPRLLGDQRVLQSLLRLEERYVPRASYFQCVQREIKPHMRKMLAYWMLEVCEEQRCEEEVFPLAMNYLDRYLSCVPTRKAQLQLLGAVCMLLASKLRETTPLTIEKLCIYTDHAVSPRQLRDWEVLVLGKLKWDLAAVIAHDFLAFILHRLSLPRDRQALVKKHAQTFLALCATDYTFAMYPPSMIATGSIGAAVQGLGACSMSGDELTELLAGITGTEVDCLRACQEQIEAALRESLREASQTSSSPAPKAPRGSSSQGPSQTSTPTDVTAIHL
Protocol: CDK6/Cyclin D3 ADP-Glo Kinase Assay
as §1, with “of the CDK6/Cyclin D3” for “of CDK1/Cyclin Bi”, “values) in the presence” for “values)”, “assay. CDK6/Cyclin D3” for “assay. CDK1/Cyclin B1”, “activity. CDK6/Cychin D3” for “activity. CDK1/Cyclin B1”, “from Carna.” for “from Carna (Cat 04-102).”, “a 90-minute” for “a 90 minute”

Chain of CDK1/Cyclin B1 (P06493 whole entry): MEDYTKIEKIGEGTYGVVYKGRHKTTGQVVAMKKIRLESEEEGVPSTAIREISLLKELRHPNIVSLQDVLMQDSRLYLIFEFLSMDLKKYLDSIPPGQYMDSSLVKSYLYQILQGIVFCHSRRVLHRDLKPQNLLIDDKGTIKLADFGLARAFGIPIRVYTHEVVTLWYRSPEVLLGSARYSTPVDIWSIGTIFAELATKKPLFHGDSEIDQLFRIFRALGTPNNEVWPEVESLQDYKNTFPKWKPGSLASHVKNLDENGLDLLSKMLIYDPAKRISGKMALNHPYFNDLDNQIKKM
Chain of CDK1/Cyclin B1 (P14635 whole entry partner): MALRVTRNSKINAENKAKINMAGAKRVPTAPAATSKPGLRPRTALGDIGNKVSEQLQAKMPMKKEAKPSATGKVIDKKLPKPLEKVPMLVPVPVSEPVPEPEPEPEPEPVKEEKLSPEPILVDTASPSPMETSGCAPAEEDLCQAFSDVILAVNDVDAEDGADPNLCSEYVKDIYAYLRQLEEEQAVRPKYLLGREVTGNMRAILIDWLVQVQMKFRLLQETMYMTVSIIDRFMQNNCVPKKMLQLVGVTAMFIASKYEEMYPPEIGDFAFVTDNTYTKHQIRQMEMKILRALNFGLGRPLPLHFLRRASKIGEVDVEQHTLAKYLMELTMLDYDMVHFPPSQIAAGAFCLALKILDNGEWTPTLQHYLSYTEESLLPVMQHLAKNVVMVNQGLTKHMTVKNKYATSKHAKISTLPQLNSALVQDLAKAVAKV

IC50 [1] [nM]	IC50 [2] [nM]	IC50 [3] [nM]	SMILES
< 200	< 200	< 200	Cc1cc2cnc(NC3CCN(S(=O)(=O)c4cnn(C)c4)CC3)nc2c(N2CC(F)(F)C3(CNC3)C2)n1 [Compound 89, 8-(8,8-difluoro-2,6-diazaspiro[3.4]octan-6-yl)-6-methyl-N-(1-((1-methyl-1H-pyrazol-4-yl)sulfonyl)piperidin-4-yl)pyrido[3,4-d]pyrimidin-2-amine]
200 to 500	< 200	200 to 500	Cc1cc2cnc(NC3CCN(S(C)(=O)=O)CC3)nc2c(N2CC3(CNC(=O)C3)C2)n1 [Compound 81, 2-(6-methyl-2-((1-(methylsulfonyl)piperidin-4-yl)amino)pyrido[3,4-d]pyrimidin-8-yl)-2,6-diazaspiro[3.4] octan-7-one]
> 2000	200 to 500	–	Cc1cc2cnc(NC3CCN(S(=O)(=O)C4CC4)CC3)nc2c(N2CC(C#N)(CCF)C2)n1 [Compound 68, 1-(2-((1-(cyclopropylsulfonyl)piperidin-4-yl)amino)-6-methylpyrido[3,4-d]pyrimidin-8-yl)-3-(2-fluoroethyl) azetidine-3-carbonitrile]
< 200	< 200	< 200	O=S(=O)(CC1CCC1)N1CCC(Nc2ncc3cc(C(F)F)nc(N4CC5(CCNC5)C4)c3n2)CC1 [Compound 55]
< 200	< 200	< 200	Cc1cc2cnc(NC3CCN(S(=O)(=O)C4CC4)CC3)nc2c(N2CC(F)(F)C3(CNC3)C2)n1 [Compound 62, N-(1-(cyclopropylsulfonyl)piperidin-4-yl)-8-(8,8-difluoro-2,6-diazaspiro[3.4]octan-6-yl)-6-methylpyrido[3,4-d]pyrimidin-2-amine]
> 2000	< 200	< 200	Cc1cc2cnc(NC3CCN(S(C)(=O)=O)CC3)nc2c(N2CCC3(C2)CC(F)(F)C3)n1 [Compound 53, 8-(2,2-difluoro-6-azaspiro[3.4]octan-6-yl)-6-methyl-N-(1-(methylsulfonyl)piperidin-4-yl)pyrido[3,4-d]pyrimidin-2-amine]
200 to 500	< 200	< 200	COC1CC2(C1)CN(c1nc(C)cc3cnc(NC4CCN(S(C)(=O)=O)CC4)nc13)C2 [Compound 76, 8-(6-methoxy-2-azaspiro[3.3]heptan-2-yl)-6-methyl-N-(1-(methylsulfonyl)piperidin-4-yl)pyrido[3,4-d]pyrimidin-2-amine]
200 to 500	< 200	200 to 500	Cc1cc2cnc(NC3CCN(S(C)(=O)=O)CC3)nc2c(N2CC3(CNCC3F)C2)n1 (centres unmarked) [Compound 98, 8-(8-fluoro-2,6-diazaspiro[3.4]octan-2-yl)-6-methyl-N-(1-(methylsulfonyl)piperidin-4-yl)pyrido[3,4-d]pyrimidin-2-amine]
200 to 500	< 200	< 200	Cc1cc2cnc(NC3CCN(S(=O)(=O)C4CC4)CC3)nc2c(N2CC3(CCNC3)C2)n1 [Compound 25, N-(1-(cyclopropylsulfonyl)piperidin-4-yl)-6-methyl-8-(2,6-diazaspiro[3.4]octan-2-yl) pyrido[3,4-d]pyrimidin-2-amine]
200 to 500	< 200	200 to 500	Cc1cc2cnc(NC3CCN(S(C)(=O)=O)CC3)nc2c(N2CC3(C2)CC(C)(O)C3)n1 [Compound 79, 6-methyl-2-(6-methyl-2-((1-(methylsulfonyl)piperidin-4-yl)amino)pyrido[3,4-d]pyrimidin-8-yl)-2-azaspiro[3.3]heptan-6-ol]
< 200	< 200	< 200	CS(=O)(=O)N1CCC(Nc2ncc3cc(C(F)F)nc(N4CC5(CNCCC5(F)F)C4)c3n2)CC1 [Compound 65]
< 200	< 200	< 200	Cc1cc2cnc(NC3CCN(S(=O)(=O)C4CC4)CC3)nc2c(N2CC(O)(C3CC3)C2)n1 [Compound 56, 3-cyclopropyl-1-(2-((1-(cyclopropylsulfonyl)piperidin-4-yl)amino)-6-methylpyrido[3,4-d]pyrimidin-8-yl)azetidin-3-ol]
< 200	< 200	< 200	Cc1cc2cnc(NC3CCN(S(=O)(=O)C4CC4)CC3)nc2c(N2CCC(OC(F)F)C2)n1 (centres unmarked) [Compound 58, N-(1-(cyclopropylsulfonyl)piperidin-4-yl)-8-(3-(difluoromethoxy)pyrrolidin-1-yl)-6-methylpyrido[3,4-d]pyrimidin-2-amine]
> 2000	< 200	< 200	COC1CC2(C1)CN(c1nc(C3CC3)cc3cnc(NC4CCN(S(C)(=O)=O)CC4)nc13)C2 [Compound 75, 6-cyclopropyl-8-(6-methoxy-2-azaspiro[3.3]heptan-2-yl)-N-(1-(methylsulfonyl)piperidin-4-yl)pyrido[3,4-d]pyrimidin-2-amine]
< 200	< 200	< 200	CCS(=O)(=O)N1CCC(Nc2ncc3cc(C)nc(N4CC(F)(F)C5(CNC5)C4)c3n2)CC1 [Compound 95, 8-(8,8-difluoro-2,6-diazaspiro[3.4]octan-6-yl)-N-(1-(ethylsulfonyl)piperidin-4-yl)-6-methylpyrido[3,4-d]pyrimidin-2-amine]
–	< 200	< 200	Cc1cc2cnc(NC3CCN(S(=O)(=O)C4CC4)CC3)nc2c(N2CC3(CNC3)C2)n1 [Compound 32, N-(1-(cyclopropylsulfonyl)piperidin-4-yl)-6-methyl-8-(2,6-diazaspiro[3.3]heptan-2-yl) pyrido[3,4-d]pyrimidin-2-amine]
–	< 200	< 200	FC(F)c1cc2cnc(Nc3ccc4c(c3)CN(C3CC3)C4)nc2c(N2CC3(CCNC3)C2)n1 [Compound 50, N-(2-cyclopropylisoindolin-5-yl)-6-(difluoromethyl)-8-(2,6-diazaspiro[3.4]octan-2-yl)pyrido[3,4-d]pyrimidin-2-amine]
> 2000	200 to 500	–	Cc1cc2cnc(Nc3ccc4c(c3)CN(C)C4)nc2c(N2CC3(C2)CN(C2CC2)C3)n1 [Compound 44, 8-(6-cyclopropyl-2,6-diazaspiro[3.3]heptan-2-yl)-6-methyl-N-(2-methylisoindolin-5-yl)pyrido[3,4-d]pyrimidin-2-amine]
> 2000	< 200	–	Cc1cc2cnc(N[C@H]3CC[C@@H](CN(C)C)CC3)nc2c(N2CCC3(C2)CC3(F)F)n1 (some centres unmarked) [Compound 45, 8-(1,1-difluoro-5-azaspiro[2.4]heptan-5-yl)-N-((1s,4s)-4-((dimethylamino)methyl)cyclohexyl)-6-methylpyrido[3,4-d]pyrimidin-2-amine]
–	< 200	< 200	COCCN1CC2(CC(c3nc(C4CC4)cc4cnc(NC5CCN(S(=O)(=O)CC6CCC6)CC5)nc34)C2)C1 [Compound 80, N-(1-((cyclobutylmethyl)sulfonyl)piperidin-4-yl)-6-cyclopropyl-8-(2-(2-methoxyethyl)-2-azaspiro[3.3]heptan-6-yl)pyrido[3,4-d]pyrimidin-2-amine]
–	200 to 500	200 to 500	Cc1cc2cnc(NC3CCN(S(=O)(=O)C4CC4)CC3)nc2c(N2CC(CS(C)(=O)=O)C2)n1 [Compound 74, N-(1-(cyclopropylsulfonyl)piperidin-4-yl)-6-methyl-8-(3-((methylsulfonyl)methyl)azetidin-1-yl)pyrido[3,4-d]pyrimidin-2-amine]
